As usually defined, the IC50 is the concentration that gives 50% inhibition.

The values below come from patent publication US10059733B2 (NUCORION PHARMACEUTICALS, INC., priority 2014, dated 2018).

Each structure is given as a SMILES string. Like-named read-outs stand apart in the source and are kept apart here.

For data set [1], the system named is HCV luciferase replicon. The data set can be described thus: IC50 assay: inhibition of the HCV luciferase replicon in Huh7 cells. The class given is cell-based. To be noted: for IC50: Hepatitis C virus; for Therapeutic Index (TC50/IC50): TC50 in Huh7 / IC50 HCV replicon, 48 h. As for the experimental part:
After 48 h of treatment at 37° C., the media in each well was removed, the cells were gently washed once with phosphate buffered saline (PBS) and subsequently lysed by the addition of Glo Lysis Buffer (Promega). After a 15 min incubation at room temperature to allow for complete cell lysis, Bright-Glo luciferase reagent (Promega) was added to each well and the relative luciferase activity in each well was determined by using a Glowmax 96 microplate luminometer (Promega).
IC50 values determined using the above methods for inhibition of the HCV luciferase replicon in Huh7 cells are set forth in Table 1.
All compounds were purified by HPLC.

Data set [2] can be described thus: TC50 assay in Huh7 cells, 48 h (CellTiter 96). To be noted: human. As for the experimental part: (§1) Huh7 cells were maintained at 37° C. in a humidified atmosphere at 5% CO2 in DMEM containing 10% FBS. […] The cells were then treated with each compound at concentrations ranging from 500 μM to 0 μM in triplicate in DMEM media containing 2% FBS and 0.5% DMSO and without phenol red. After 48 h of treatment at 37° C., the relative number of living cells in each well was determined by using the CellTiter 96 system (Promega) according to the manufacturer's instructions. The 3-(4,5-dimethylthiazol-2-yl)-5-(3-carboxymethoxyphenyl)-2-(4-sulfophenyl)-2H-tetrazolium (MTS) and phenazine methosulfate (PMS) reagents were added to each well of the 96-well plate and the plate was incubated at 37° C. for approximately 2 h. The absorbance at 490 nm and 650 nm in each well was then determined by using a Flexstation 3 microplate reader ([…]). The absorbance determined at 650 nm was then subtracted from the absorbance determined at 490 nm to correct for light scattering. The corrected absorbance values representing the relative number of live cells in each condition were then plotted as a function of compound concentration, and the data were then fit to the following sigmoidal Emax equation by using Kaleidagraph: y=(Emax*x^Slope)/(TC50^Slope+x^Slope) where y is the relative corrected absorbance value, Emax is the maximum relative inhibition, x is the compound concentration, TC50 is the concentration of the compound at which the total cell population is reduced by 50%, and Slope is the slope of the curve.
The data in Table 1 were determined for cells exposed to drug for 48 h. The IC50 is the concentration of each compound necessary to inhibit the replication of the HCV luciferase replicon to 50%. “TC50,” refers to toxic concentration necessary to reduce the cell population by 50%. All compounds were purified by HPLC.

In data set [3] the test system is HCV luciferase replicon. Nature of the data set: Isobologram analysis of synergism with antiviral compound in HCV luciferase replicon. The class given is cell-based. As for the experimental part: Isobologram analysis was conducted to assess the potential synergistic interaction of representative disclosed compounds with representative antiviral compounds. The isobolgram analysis was conducted as previously described by Chou and Talalay (see Chou T. C. and Talalay P. “Analysis of combined drug effects: a new look at a very old problem.” Trends Pharmacol Sci 1983; 4:450-4; and Chou T. C. and Talalay P. “Quantitative analysis of dose-effect relationships: the combined effects of multiple drugs or enzyme inhibitors.” Adv Enzyme Regul 1984; 22:27-55; both of which are incorporated herein by reference in their entirety). The definitions of synergism are those described by Chou (see Chou, T. C. (2006) Theoretical basis, experimental design, and computerized simulation of synergism and antagonism in drug combination studies. Pharmacol Rev. 58(3):621-81, which is incorporated herein by reference in its entirety).
In the synergism studies described herein, the antiviral compound shown in Table 6 was assessed in combination with a representative disclosed compound, Compound 1.
For orientation: Replicon systems follow genome replication, usually without infectious particles.

A further data set concerns PK9 cells. The data set can be described thus: TC50 assay in PK9 cells, 48 h. To be noted: Homo sapiens, PK9, 48 h, read-out: TC50 (μM) in PK9 cells at 48 hr. On the procedure:
as §1
(§2) PK9 and RPK9 cells were maintained at 37° C. in a humidified atmosphere at 5% CO2 in Roswell Park Memorial Institute (RPMI) media containing 10% FBS. […] The cells were then treated with each compound at concentrations ranging from […] to 0 μM in triplicate in RPMI media containing 2% FBS and 0.5% DMSO and without phenol red. […] The RPK9 cells were derived from the parental PK9 cell line, and are deficient for dCK activity due to the partial deletion of the dCK gene.

The next data set concerns RPK9 cells. Nature of the data set: TC50 assay in gemcitabine resistant (dCK deficient) RPK9 cells, 48 h. Conditions: read-out: TC50 (μM) in RPK9 cells at 48 hr. As for the experimental part:
as §1, §2

For a further data set, the system named is Huh7. The data set can be described thus: TC50 assay with human cancer cell lines, 96 h: Huh7. The class given is cell-based.
A further data set relates to HEK293. Nature of the data set: TC50 assay with human cancer cell lines, 96 h: HEK293. The class given is cell-based.
For another data set, the system named is MCF-7. The data set can be described thus: TC50 assay with human cancer cell lines, 96 h: MCF-7. The class given is cell-based.
The next data set deals with BxPC3. The data set can be described thus: TC50 assay with human cancer cell lines, 96 h: BxPC3. The class given is cell-based.
The subject of a further data set is HEPG2. Nature of the data set: TC50 assay with human cancer cell lines, 96 h: HEPG2. The format is cell-based. Conditions: HepG2, 96 h, read-out: TC50 HEPG2 (μM).
[4] abbreviates: Huh-7, Huh7 cells containing HCV luciferase replicon, 48 h exposure, read-out: IC50.

Method for BxPC3: (§3) Huh7 cells were maintained at 37° C. in a humidified atmosphere at 5% CO2 in DMEM containing 10% FBS. […] The cells were then treated with each compound at concentrations ranging from 500 μM to 0 μM in triplicate in DMEM media containing 2% FBS and 0.5% DMSO and without phenol red. After 48 h of treatment at 37° C., the relative number of living cells in each well was determined by using the CellTiter 96 system (Promega) according to the manufacturer's instructions. The 3-(4,5-dimethylthiazol-2-yl)-5-(3-carboxymethoxyphenyl)-2-(4-sulfophenyl)-2H-tetrazolium (MTS) and phenazine methosulfate (PMS) reagents were added to each well of the 96-well plate and the plate was incubated at 37° C. for approximately 2 h. The absorbance at 490 nm and 650 nm in each well was then determined by using a Flexstation 3 microplate reader (Molecular Dynamics). The absorbance determined at 650 nm was then subtracted from the absorbance determined at 490 nm to correct for light scattering. The corrected absorbance values representing the relative number of live cells in each condition were then plotted as a function of compound concentration, and the data were then fit to the following sigmoidal Emax equation by using Kaleidagraph: y=(Emax*x^Slope)/(TC50^Slope+x^Slope) where y is the relative corrected absorbance value, Emax is the maximum relative inhibition, x is the compound concentration, TC50 is the concentration of the compound at which the total cell population is reduced by 50%, and Slope is the slope of the curve.
(§4) Huh7, HEPG2, HEK293, MCF-7 and BxPC3 cell lines were maintained at 37° C. in a humidified atmosphere at 5% CO2 in DMEM containing 10% FBS. […] The cells were then treated with each compound at concentrations ranging from 500 μM to 0 μM in triplicate in DMEM media containing 2% FBS and 0.5% DMSO and without phenol red.
Method for HEK293: as §3, §4
Method for HEPG2: as §3, §4
Method for MCF-7: as §3, §4

On to `CC(C)OC(=O)[C@H](C)NP(=O)(OC[C@H]1OC(n2ccc(NC(=O)C3Cc4ccccc4C3)nc2=O)C(F)(F)[C@@H]1O)Oc1ccccc1` (stereo in doubt) [Compound 13, (2S)-isopropyl 2-(((R)-(((2R,3R)-5-(4-(2,3-dihydro-1H-indene-2-carboxamido)-2-oxopyrimidin-1(2H)-yl)-4,4-difluoro-3-hydroxytetrahydrofuran-2-yl)methoxy)(phenoxy)phosphoryl)amino)-propanoate], for which the IC50 in the data set with HCV luciferase replicon [1] (Huh-7, 48 h) amounted to 0.345 µM. In addition, the “Therapeutic Index (TC50/IC50)” value in the data set with HCV luciferase replicon [1] was determined as 684. Further, the CC50 at 48 h in data set [2] worked out at 236 µM.
Take `COC(=O)N[C@H](C(=O)N1CCC[C@H]1c1ncc(-c2ccc(-c3ccc(-c4cnc([C@@H]5CCCN5C(=O)[C@@H](NC(=O)OC)C(C)C)[nH]4)cc3)cc2)[nH]1)C(C)C` [BMS-790052, carbamic acid, N,N′-[[1,1′-biphenyl]-4,4′-diylbis[1H-imidazole-5,2-diyl-(2S)-2,1-pyrrolidinediyl[(1S)-1-(1-methylethyl)-2-oxo-2,1-ethanediyl]]]bis-, C,C′-dimethyl ester, reference compound]: the “Combination Index” value in the data set on HCV luciferase replicon [3] (Compound 1 0.0 nM, BMS-790052 0.020 nM) stood at 1.000. Besides, the “concentration of the single agent on the IC50 isobologram (Combination Index 1.000)” value in the data set with HCV luciferase replicon [3] (compound alone, other compound 0 nM) was found to be 0.020 nM.
As to `CCCC(CCC)C(=O)Nc1ccn([C@@H]2O[C@@H]3CO[P@@](=O)(OC(C)C)O[C@H]3C2(F)F)c(=O)n1` [Compound 2, N-(1-((2S,4aR,6R,7aR)-7,7-difluoro-2-isopropoxy-2-oxidotetrahydro-4H-furo[3,2-d][1,3,2]-dioxaphosphinin-6-yl)-2-oxo-1,2-dihydropyrimidin-4-yl)-2-propylpentanamide], the IC50 in the data set with HCV luciferase replicon [1] (setting [4]) turned out to be 7.48 µM. The “Therapeutic Index (TC50/IC50)” value with HCV luciferase replicon [1] was 23.4. In addition, the CC50 at 48 h in data set [2] (Huh7 cells) stood at 175 ± 23 µM. Besides, the CC50 with PK9 cells came to 716 ± 104 µM; in the data set with RPK9 cells, 537 ± 55 µM.
For `O=C(Nc1ccn(C2O[C@H](CO)[C@@H](O)C2(F)F)c(=O)n1)c1ccc2c(c1)CCCC2` (stereo partly drawn) [Compound 5, N-(1-((4R,5R)-3,3-difluoro-4-hydroxy-5-(hydroxymethyl)tetrahydrofuran-2-yl)-2-oxo-1,2-dihydropyrimidin-4-yl)-5,6,7,8-tetrahydronaphthalene-2-carboxamide], in the data set on HCV luciferase replicon [1] (setting [4]), the IC50 came to 0.086 µM. Also, in the data set on HCV luciferase replicon [1], the “Therapeutic Index (TC50/IC50)” value is reported as 1,535. Further, the CC50 at 48 h in data set [2] (Huh7 cells) is 132 µM.
For `O=C(Nc1ccn(C2O[C@H](CO)[C@@H](O)C2(F)F)c(=O)n1)c1ccc2cc(Br)ccc2c1` (stereo partly drawn) [Compound 6, 6-bromo-N-(1-((4R,5R)-3,3-difluoro-4-hydroxy-5-(hydroxymethyl)tetrahydrofuran-2-yl)-2-oxo-1,2-dihydropyrimidin-4-yl)-2-naphthamide], in that order: 0.185 µM, 400 and 74 µM.
As to `O=C(Nc1ccn(C2O[C@H](CO)[C@@H](O)C2(F)F)c(=O)n1)c1ccc2ccccc2c1` (stereo partly drawn) [Compound 7, N-(1-((4R,5R)-3,3-difluoro-4-hydroxy-5-(hydroxymethyl)tetrahydrofuran-2-yl)-2-oxo-1,2-dihydropyrimidin-4-yl)-2-naphthamide], the IC50 with HCV luciferase replicon [1] (setting [4]) worked out at 0.126 µM. For the same compound, the “Therapeutic Index (TC50/IC50)” value in the data set with HCV luciferase replicon [1] stood at 992. The CC50 at 48 h in data set [2] (Huh7 cells) amounted to 125 µM.
For `O=C(Nc1ccn(C2O[C@H](CO)[C@@H](O)C2(F)F)c(=O)n1)c1ccc2c(c1)C(=O)c1ccccc1C2=O` (stereo partly drawn) [Compound 8, N-(1-((4R,5R)-3,3-difluoro-4-hydroxy-5-(hydroxymethyl)tetrahydrofuran-2-yl)-2-oxo-1,2-dihydropyrimidin-4-yl)-9,10-dioxo-9,10-dihydroanthracene-2-carboxamide] the same measures were 0.0128 µM, 19,450 and 249 µM.
As to `O=C(Nc1ccn(C2O[C@H](CO)[C@@H](O)C2(F)F)c(=O)n1)c1cccc2c1CCCC2` (stereo partly drawn) [Compound 9, N-(1-((4R,5R)-3,3-difluoro-4-hydroxy-5-(hydroxymethyl)tetrahydrofuran-2-yl)-2-oxo-1,2-dihydropyrimidin-4-yl)-5,6,7,8-tetrahydronaphthalene-1-carboxamide], the concentration for half-maximal inhibition (IC50) with HCV luciferase replicon [1] (setting [4]) amounted to 0.161 µM. The “Therapeutic Index (TC50/IC50)” value with HCV luciferase replicon [1] is reported as 571. In data set [2] (Huh7 cells), the CC50 at 48 h was determined as 92 µM.
For `COc1ccc2cc(C(=O)Nc3ccn(C4O[C@H](CO)[C@@H](O)C4(F)F)c(=O)n3)ccc2c1` (stereo partly drawn) [Compound 10, N-(1-((4R,5R)-3,3-difluoro-4-hydroxy-5-(hydroxymethyl)tetrahydrofuran-2-yl)-2-oxo-1,2-dihydropyrimidin-4-yl)-6-methoxy-2-naphthamide], in the data set on HCV luciferase replicon [1] (setting [4]), the IC50 came to 0.0935 µM. In addition, in the data set on HCV luciferase replicon [1], the “Therapeutic Index (TC50/IC50)” value was 1,796. In [2] (Huh7 cells), this compound displayed a CC50 at 48 h of 168 µM.
For `O=C(Nc1ccn(C2O[C@H](CO)[C@@H](O)C2(F)F)c(=O)n1)C1Cc2ccccc2C1` (stereo partly drawn) [Compound 11, N-(1-((4R,5R)-3,3-difluoro-4-hydroxy-5-(hydroxymethyl)tetrahydrofuran-2-yl)-2-oxo-1,2-dihydropyrimidin-4-yl)-2,3-dihydro-1H-indene-2-carboxamide] the same measures were 0.01 µM, >50,000 and over 500 µM.
For `O=C(Nc1ccn(C2O[C@H](CO)[C@@H](O)C2(F)F)c(=O)n1)c1ccc2c(c1)CCC2` (stereo partly drawn) [Compound 12, N-(1-((4R,5R)-3,3-difluoro-4-hydroxy-5-(hydroxymethyl)tetrahydrofuran-2-yl)-2-oxo-1,2-dihydropyrimidin-4-yl)-2,3-dihydro-1H-indene-5-carboxamide] the same measures were 0.0586 µM, 6,451 and 378 µM.
With `O=C(Nc1ccn(C2O[C@H](CO)[C@@H](O)C2(F)F)c(=O)n1)c1ccc2c(c1)OCO2` (stereo partly shown) [Non-phosphorylated analog of Compound 4], the IC50 in the data set on HCV luciferase replicon [1] (setting [4]) turned out to be 0.0598 ± 0.0084 µM. In the data set with HCV luciferase replicon [1], the “Therapeutic Index (TC50/IC50)” value amounted to 7910. In data set [2] (Huh7 cells), this compound displayed a CC50 at 48 h of 473 ± 74 µM. Further, the CC50 in the data set on Huh7 (Huh-7, 96 h of treatment, read-out: TC50 Huh7) is 7.04 µM; with HEK293 (HEK293, 96 h of treatment, read-out: TC50 HEK293), 4.09 µM; in the data set with MCF-7 (MCF7, 96 h of treatment, read-out: TC50 MCF-7), 1.19 µM; in the data set on BxPC3 (BXPC-3, 96 h of treatment, read-out: TC50 BxPC3), 0.72 µM; with RPK9 cells, over 500 µM.
Consider `CC(C)OC(=O)[C@H](C)N[P@](=O)(OC[C@H]1O[C@@H](n2ccc(N)nc2=O)C(F)(F)C1O)Oc1ccccc1` (stereo partly shown) [Phosphorylated analog of Gemcitabine], for which the CC50 in the data set on Huh7 (Huh-7, 96 h, read-out: TC50 Huh7 (μM)) was 4.15 µM; with HEPG2, 0.89 µM; with HEK293 (HEK293, 96 h, read-out: TC50 HEK293 (μM)), 0.38 µM; with MCF-7 (MCF7, 96 h, read-out: TC50 MCF-7 (μM)) it was 0.115 µM; in the data set with BxPC3 (BXPC-3, 96 h, read-out: TC50 BxPC3 (μM)) it was 0.76 µM; with PK9 cells it was 11.2 µM. Also, in the data set with RPK9 cells, the CC50 is 21 µM.
